System: neuronal progenitor cells in the SVZ and the dentate gyrus
Experiment: Proliferation of neuronal progenitor cells (BrdU immunoreactive cell density) in non ischemic adult rats
Type: in vivo, rat
Protocol: Two experiments were performed. In the first experiment, the effects of NO on the proliferation of neuronal progenitor cells in the SVZ and the dentate gyrus of non ischemic adult rats were examined. In the second experiment, the effects of NO on the proliferation of neuronal progenitor cells in the SVZ and in the dentate gyrus of ischemic adult rats were examined.
Male Wistar rats (n=28) weighing 300-350 g were anesthetized with halothane (1-3.5% in a mixture of 70% N2O and 30% O2) using a face mask. The rectal temperature was maintained at 37±1° C. throughout the surgical procedure using a feedback regulated water heating system. The right femoral artery and vein were cannulated with a PE-50 catheter for continuous monitoring of blood pressure and measurement of blood gases (pH, pO2, pCO2) and for drug administration, respectively. DETANONOate was intravenously and intraperitoneally injected to rats.
DETANONO treatment: Rats were randomly divided into four groups. Group 1 (single Rx), rats were intravenously injected with four consecutive bolus doses of DETANONO (0.1 mg/kg each) every fifteen minutes (total dose of 0.4 mg/kg). Group 2 (two Rx group), rats were intravenously injected with four consecutive bolus doses of DETANONO (0.1 mg/kg each) every fifteen minutes (total dose 0.4 mg/kg) and rats received a second treatment at 24 hours later. Group 3 (seven Rx group), rats received four consecutive intravenous bolus doses of DETANONO (0.1 mg/kg each) every fifteen minutes on the first experimental day and rats were intraperitoneally injected with a bolus dose of DETANONO (0.4 mg/kg) daily for an additional six consecutive days. Group 4 (control), rats received saline only (single dose).
Rats received an intraperitoneal injection of BrdU (50 mg/kg) on the first day of DETANONO treatment and daily intraperitoneal injections of BrdU for fourteen consecutive days. To determine whether the proliferation and the differentiation of cells in the SVZ and dentate gyrus of adult rats is affected by NO, rats were sacrificed at fourteen days (n=3-5 per group) and 42 days (n=3-5 per group) after first dose of DETANONO treatment, respectively. Rats were transcardially perfused with 4% paraformaldehyde in 100 mM phosphate buffer, pH 7.4. Brains were removed and fixed in 4% formaldehyde.
For BrdU immunostaining, DNA was first denatured by incubating brain sections (6 μm) in 50% formamide 2×SSC at 65° C. for 2 hours and then in 2N HCl at 37° C. for 30 minutes. Sections were then rinsed with Tris buffer and treated with 1% of H2O2 to block endogenous peroxidase. Sections were incubated with a primary antibody to BrdU (1:100) at room temperature for one hour and then incubated with biotinylated secondary antibody (1:200, Vector, Burlingame, Calif.) for one hour. Reaction product was detected using 3′3′-diaminobenzidine-tetrahydrochloride (DAB, Sigma).
BrdU immunostained sections were digitized under 40× objectively (Olympus BX40) via the MCID computer imaging analysis system (Imaging Research, St. Catharines, Canada). BrdU immunoreactive nuclei were counted on a computer monitor to improve visualization and in one focal plane to avoid over-sampling. Structures were sampled either by selecting predetermined areas on each section (RMS and OB) or by analyzing entire structures on each section (dentate gyrus and SVZ).
Every 40th coronal section was selected from each rat for a total of seven sections between AP+10.6 mm, genu corpus callosum, and AP+8.74 mm-anterior commissure crossing (Paxinos and Watson, 1986). BrdU immunoreactive-positive nuclei were counted in the lateral ventricle wall. All BrdU immunoreactive-positive nuclei in these areas are presented as the number of the BrdU immunoreactive cells/mm^2. Density for the seven sections was averaged to obtain a mean density value for each animal.
Every 20th section was selected from each rat for a total of six sections from the sagittal series of the OB/frontal cortex. […]

## NCCN(CCN)/[N+]([O-])=N/O [DETANONO, DETANONOate]
ONCE, 4 weeks after last BrdU injection (42 d), Contralateral
  Density of newborn cells, Olfactory bulb: 80 ± 12.3 cells per mm^2
ONCE, 4 weeks after last BrdU injection (42 d), Ipsilateral
  Density of newborn cells, Olfactory bulb: 75.65 ± 10.85 cells per mm^2
ONCE, 4 weeks after last BrdU injection, Left side
  Density of newborn cells, Rostral migratory stream: 26.25 ± 6.9 cells per mm^2
ONCE, 4 weeks after last BrdU injection, Right side
  Density of newborn cells, Rostral migratory stream: 22.5 ± 5.95 cells per mm^2
ONCE, 1 day after last BrdU injection (14 d), Contralateral
  Density of newborn cells, Olfactory bulb: 39.75 ± 6.2 cells per mm^2
ONCE, 1 day after last BrdU injection (14 d), Ipsilateral
  Density of newborn cells, Olfactory bulb: 41.4 ± 5.55 cells per mm^2
ONCE, 1 day after last BrdU injection (14 d), Left side
  Density of newborn cells, Rostral migratory stream: 998.55 ± 59.7 cells per mm^2
ONCE, 1 day after last BrdU injection (14 d), Right side
  Density of newborn cells, Rostral migratory stream: 950.25 ± 99.55 cells per mm^2
TWICE, 4 weeks after last BrdU injection (42 d), Contralateral
  Density of newborn cells, Olfactory bulb: 98.4 ± 19.95 cells per mm^2
TWICE, 4 weeks after last BrdU injection (42 d), Ipsilateral
  Density of newborn cells, Olfactory bulb: 85 ± 15.95 cells per mm^2
TWICE, 4 weeks after last BrdU injection, Left side
  Density of newborn cells, Rostral migratory stream: 37.8 ± 5.15 cells per mm^2
TWICE, 4 weeks after last BrdU injection, Right side
  Density of newborn cells, Rostral migratory stream: 32.9 ± 8.15 cells per mm^2
TWICE, 1 day after last BrdU injection (14 d), Contralateral
  Density of newborn cells, Olfactory bulb: 99.6 ± 10.5 cells per mm^2
TWICE, 1 day after last BrdU injection (14 d), Ipsilateral
  Density of newborn cells, Olfactory bulb: 91.65 ± 12.35 cells per mm^2
TWICE, 1 day after last BrdU injection (14 d), Left side
  Density of newborn cells, Rostral migratory stream: 1070.85 ± 160.1 cells per mm^2
TWICE, 1 day after last BrdU injection (14 d), Right side
  Density of newborn cells, Rostral migratory stream: 991 ± 98.25 cells per mm^2
Non ischemic rats, 42 days after a single set, fourteen and 42 days after two and seven sets, vs control
  BrdU immunoreactive cells in OB: significant increases
Non ischemic rats, fourteen days after treatment
  number of BrdU immunoreactive cells in the SVZ, seven doses vs one and two doses: highest number of BrdU immunoreactive cells
Non ischemic rats, fourteen days and 42 days after treatment
  numbers of BrdU immunoreactive cells in the RMS: did not significantly increase
Non ischemic rats, fourteen days and 42 days, vs control
  percentage of distribution of BrdU immunoreactive cells in the dentate gyrus: significantly decreases percentage of BrdU immunoreactive cells in subgranular zone and significantly increases in the granule layers
Non ischemic rats, single treatment, fourteen days and 42 days
  numbers of BrdU immunoreactive cells in the dentate gyrus: did not significantly increase
Non ischemic rats, two and seven sets, fourteen days and 42 days, vs control
  numbers of BrdU immunoreactive cells in the dentate gyrus: significant (p<0.01) increases
Non ischemic rats, vs saline at fourteen days and 42 days after treatment
  numbers of BrdU immunoreactive cells in the SVZ: significant (p<0.05) increase
× 7 TIMES, 4 weeks after last BrdU injection (42 d), Contralateral
  Density of newborn cells, Olfactory bulb: 100.65 ± 19 cells per mm^2
× 7 TIMES, 4 weeks after last BrdU injection (42 d), Ipsilateral
  Density of newborn cells, Olfactory bulb: 84.4 ± 7.1 cells per mm^2
× 7 TIMES, 4 weeks after last BrdU injection, Left side
  Density of newborn cells, Rostral migratory stream: 47.5 ± 15.6 cells per mm^2
× 7 TIMES, 4 weeks after last BrdU injection, Right side
  Density of newborn cells, Rostral migratory stream: 45 ± 11.35 cells per mm^2
× 7 TIMES, 1 day after last BrdU injection (14 d), Contralateral
  Density of newborn cells, Olfactory bulb: 116.55 ± 16.45 cells per mm^2
× 7 TIMES, 1 day after last BrdU injection (14 d), Ipsilateral
  Density of newborn cells, Olfactory bulb: 106.25 ± 17.7 cells per mm^2
× 7 TIMES, 1 day after last BrdU injection (14 d), Left side
  Density of newborn cells, Rostral migratory stream: 1312.5 ± 265 cells per mm^2
× 7 TIMES, 1 day after last BrdU injection (14 d), Right side
  Density of newborn cells, Rostral migratory stream: 1169.4 ± 218.85 cells per mm^2

— patent US8383626B2, “Nitric oxide donors for inducing neurogenesis” (Henry Ford Health System, priority 1999, dated 2013)
